{"source": "patent US11304949B2", "about": "“Treatment of hidradenitis suppurativa using JAK inhibitors” (Incyte Corporation, priority 2018, dated 2022)", "key": {"[1]": {"system": "Transformed human keratinocyte (HaCaT) cells stimulated with TNFα and IFNγ", "assay": "JAK inhibitors in TNFα/IFNγ stimulated keratinocytes, gene expression (QuantiGene Plex)", "conditions": "24 hours, normalized to HPRT1, mean ± standard error"}, "[2]": {"system": "Transformed human keratinocyte (HaCaT) cells stimulated with TNFα and IFNγ", "assay": "JAK inhibitors in TNFα/IFNγ stimulated keratinocytes, inflammatory mediators in media (ProCarta Multiplex Immunoassay)", "conditions": "mean ± 1 standard error"}, "[3]": {"system": "human JAK1 (a.a. 837-1142)", "assay": "In vitro JAK kinase assay (HTRF), JAK1", "type": "biochemical", "conditions": "IC50 ratio at 1 mM ATP"}, "[4]": {"molecular_target": "human JAK1 (a.a. 837-1142) (Homo sapiens, UniProt P23458)", "assay": "In vitro JAK kinase assay (HTRF), JAK1", "type": "biochemical", "conditions": "1 mM ATP"}, "[5]": {"conditions": "TNFα (25 ng/mL) and IFNγ (25 ng/mL), drug 25 nM"}, "[6]": {"conditions": "TNFα (25 ng/mL) and IFNγ (25 ng/mL), drug 50 nM"}, "[7]": {"conditions": "TNFα (25 ng/mL) and IFNγ (25 ng/mL), drug 100 nM"}, "[8]": {"conditions": "TNFα (25 ng/mL) and IFNγ (25 ng/mL), drug 200 nM"}, "[9]": {"conditions": "TNFα (25 ng/mL) and IFNγ (25 ng/mL) stimulation, drug 25 nM"}, "[10]": {"conditions": "TNFα (25 ng/mL) and IFNγ (25 ng/mL) stimulation, drug 50 nM"}, "[11]": {"conditions": "TNFα (25 ng/mL) and IFNγ (25 ng/mL) stimulation, drug 100 nM"}, "[12]": {"conditions": "TNFα (25 ng/mL) and IFNγ (25 ng/mL) stimulation, drug 200 nM"}}, "data": [{"smiles": "C[C@@H](O)c1nc2cnc3ccsc3c2n1[C@H]1CC[C@H](CC#N)OC1", "note": "[Compound 5, ((2R,5S)-5-{2-[(1R)-1-hydroxyethyl]-1H-imidazo[4,5-d]thieno[3,2-b]pyridin-1-yl}tetrahydro-2H-pyran-2-yl)acetonitrile]", "values": [{"measurement": "IL-1α MFI", "setting": "[1]; [5]", "value": "1269.66 ± 50.59"}, {"measurement": "IL-6 MFI", "setting": "[1]; [5]", "value": "132.28 ± 7.41"}, {"measurement": "JAK1 MFI", "setting": "[1]; [5]", "value": "200.4 ± 9.84"}, {"measurement": "JAK2 MFI", "setting": "[1]; [5]", "value": "108.89 ± 3.25"}, {"measurement": "JAK3 MFI", "setting": "[1]; [5]", "value": "0.97 ± 0.18"}, {"measurement": "STAT1 MFI", "setting": "[1]; [5]", "value": "3164.74 ± 242.35"}, {"measurement": "STAT3 MFI", "setting": "[1]; [5]", "value": "1572.76 ± 65.5"}, {"measurement": "STAT4 MFI", "setting": "[1]; [5]", "value": "5.4 ± 0.45"}, {"measurement": "STAT5A MFI", "setting": "[1]; [5]", "value": "20.12 ± 1.29"}, {"measurement": "STAT6 MFI", "setting": "[1]; [5]", "value": "1042.76 ± 29.23"}, {"measurement": "TYK2 MFI", "setting": "[1]; [5]", "value": "283.93 ± 8.16"}, {"measurement": "IL-1α MFI", "setting": "[1]; [6]", "value": "1336.95 ± 50.97"}, {"measurement": "IL-6 MFI", "setting": "[1]; [6]", "value": "137.61 ± 5.87"}, {"measurement": "JAK1 MFI", "setting": "[1]; [6]", "value": "210.52 ± 7.73"}, {"measurement": "JAK2 MFI", "setting": "[1]; [6]", "value": "106.83 ± 5.94"}, {"measurement": "JAK3 MFI", "setting": "[1]; [6]", "value": "0.99 ± 0.20"}, {"measurement": "STAT1 MFI", "setting": "[1]; [6]", "value": "3017.08 ± 167.96"}, {"measurement": "STAT3 MFI", "setting": "[1]; [6]", "value": "1543.4 ± 58.65"}, {"measurement": "STAT4 MFI", "setting": "[1]; [6]", "value": "6.1 ± 0.36"}, {"measurement": "STAT5A MFI", "setting": "[1]; [6]", "value": "22.69 ± 1.71"}, {"measurement": "STAT6 MFI", "setting": "[1]; [6]", "value": "1046.46 ± 29.12"}, {"measurement": "TYK2 MFI", "setting": "[1]; [6]", "value": "307.36 ± 14.87"}, {"measurement": "IL-1α MFI", "setting": "[1]; [7]", "value": "1244.96 ± 41.03"}, {"measurement": "IL-6 MFI", "setting": "[1]; [7]", "value": "122.46 ± 5.35"}, {"measurement": "JAK1 MFI", "setting": "[1]; [7]", "value": "200.25 ± 8.15"}, {"measurement": "JAK2 MFI", "setting": "[1]; [7]", "value": "102.64 ± 3.52"}, {"measurement": "JAK3 MFI", "setting": "[1]; [7]", "value": "1.01 ± 0.17"}, {"measurement": "STAT1 MFI", "setting": "[1]; [7]", "value": "2999.87 ± 197.86"}, {"measurement": "STAT3 MFI", "setting": "[1]; [7]", "value": "1549.17 ± 89.41"}, {"measurement": "STAT4 MFI", "setting": "[1]; [7]", "value": "5.83 ± 0.34"}, {"measurement": "STAT5A MFI", "setting": "[1]; [7]", "value": "19.54 ± 1.34"}, {"measurement": "STAT6 MFI", "setting": "[1]; [7]", "value": "985.1 ± 39.79"}, {"measurement": "TYK2 MFI", "setting": "[1]; [7]", "value": "280.63 ± 10.46"}, {"measurement": "IL-1α MFI", "setting": "[1]; [8]", "value": "1163.14 ± 26.71"}, {"measurement": "IL-6 MFI", "setting": "[1]; [8]", "value": "119.49 ± 4.42"}, {"measurement": "JAK1 MFI", "setting": "[1]; [8]", "value": "190.53 ± 7.68"}, {"measurement": "JAK2 MFI", "setting": "[1]; [8]", "value": "92.21 ± 2.9"}, {"measurement": "JAK3 MFI", "setting": "[1]; [8]", "value": "0.86 ± 0.16"}, {"measurement": "STAT1 MFI", "setting": "[1]; [8]", "value": "3161.66 ± 135.8"}, {"measurement": "STAT3 MFI", "setting": "[1]; [8]", "value": "1570.19 ± 51.51"}, {"measurement": "STAT4 MFI", "setting": "[1]; [8]", "value": "5.42 ± 0.52"}, {"measurement": "STAT5A MFI", "setting": "[1]; [8]", "value": "18.33 ± 1.83"}, {"measurement": "STAT6 MFI", "setting": "[1]; [8]", "value": "1013.25 ± 17.15"}, {"measurement": "TYK2 MFI", "setting": "[1]; [8]", "value": "283.28 ± 10.88"}, {"measurement": "IL-1α MFI", "setting": "[1]; no stimulation, drug 200 nM", "value": "92.67 ± 5.54"}, {"measurement": "IL-6 MFI", "setting": "[1]; no stimulation, drug 200 nM", "value": "5.15 ± 0.31"}, {"measurement": "JAK1 MFI", "setting": "[1]; no stimulation, drug 200 nM", "value": "177.97 ± 14.91"}, {"measurement": "JAK2 MFI", "setting": "[1]; no stimulation, drug 200 nM", "value": "25.67 ± 1.03"}, {"measurement": "JAK3 MFI", "setting": "[1]; no stimulation, drug 200 nM", "value": "0.71 ± 0.15"}, {"measurement": "STAT1 MFI", "setting": "[1]; no stimulation, drug 200 nM", "value": "554.64 ± 11.36"}, {"measurement": "STAT3 MFI", "setting": "[1]; no stimulation, drug 200 nM", "value": "750.90 ± 27.68"}, {"measurement": "STAT4 MFI", "setting": "[1]; no stimulation, drug 200 nM", "value": "4.32 ± 0.53"}, {"measurement": "STAT5A MFI", "setting": "[1]; no stimulation, drug 200 nM", "value": "1.99 ± 0.51"}, {"measurement": "STAT6 MFI", "setting": "[1]; no stimulation, drug 200 nM", "value": "777.03 ± 29.31"}, {"measurement": "TYK2 MFI", "setting": "[1]; no stimulation, drug 200 nM", "value": "220.78 ± 12.01"}, {"measurement": "IL-1α concentration in media", "setting": "[2]; [9]", "value": "6.8 ± 0.39", "unit": "pg/mL"}, {"measurement": "IL-6 concentration in media", "setting": "[2]; [9]", "value": "743.07 ± 36.3", "unit": "pg/mL"}, {"measurement": "IP-10/CXCL10 concentration in media", "setting": "[2]; [9]", "value": "3903.67 ± 366.97", "unit": "pg/mL"}, {"measurement": "MIP1α concentration in media", "setting": "[2]; [9]", "value": "102.06 ± 4.18", "unit": "pg/mL"}, {"measurement": "RANTES concentration in media", "setting": "[2]; [9]", "value": "237.57 ± 17.46", "unit": "pg/mL"}, {"measurement": "IL-1α concentration in media", "setting": "[2]; [10]", "value": "6.76 ± 0.4", "unit": "pg/mL"}, {"measurement": "IL-6 concentration in media", "setting": "[2]; [10]", "value": "698.04 ± 29.79", "unit": "pg/mL"}, {"measurement": "IP-10/CXCL10 concentration in media", "setting": "[2]; [10]", "value": "3998.62 ± 456.34", "unit": "pg/mL"}, {"measurement": "MIP1α concentration in media", "setting": "[2]; [10]", "value": "96.35 ± 3.57", "unit": "pg/mL"}, {"measurement": "RANTES concentration in media", "setting": "[2]; [10]", "value": "237.55 ± 21.78", "unit": "pg/mL"}, {"measurement": "IL-1α concentration in media", "setting": "[2]; [11]", "value": "6.92 ± 0.4", "unit": "pg/mL"}, {"measurement": "IL-6 concentration in media", "setting": "[2]; [11]", "value": "703.99 ± 42.22", "unit": "pg/mL"}, {"measurement": "IP-10/CXCL10 concentration in media", "setting": "[2]; [11]", "value": "4100.26 ± 502.48", "unit": "pg/mL"}, {"measurement": "MIP1α concentration in media", "setting": "[2]; [11]", "value": "96.22 ± 3.58", "unit": "pg/mL"}, {"measurement": "RANTES concentration in media", "setting": "[2]; [11]", "value": "241.39 ± 22.79", "unit": "pg/mL"}, {"measurement": "IL-1α concentration in media", "setting": "[2]; [12]", "value": "6.3 ± 0.35", "unit": "pg/mL"}, {"measurement": "IL-6 concentration in media", "setting": "[2]; [12]", "value": "646.2 ± 32.46", "unit": "pg/mL"}, {"measurement": "IP-10/CXCL10 concentration in media", "setting": "[2]; [12]", "value": "4407.56 ± 645.63", "unit": "pg/mL"}, {"measurement": "MIP1α concentration in media", "setting": "[2]; [12]", "value": "88.49 ± 5.06", "unit": "pg/mL"}, {"measurement": "RANTES concentration in media", "setting": "[2]; [12]", "value": "238.51 ± 23.12", "unit": "pg/mL"}, {"measurement": "IL-1α concentration in media", "setting": "[2]; no stimulation, drug 200 nM", "value": "0.31 ± 0.04", "unit": "pg/mL"}, {"measurement": "IL-6 concentration in media", "setting": "[2]; no stimulation, drug 200 nM", "value": "28.84 ± 1.89", "unit": "pg/mL"}, {"measurement": "IP-10/CXCL10 concentration in media", "setting": "[2]; no stimulation, drug 200 nM", "value": "20.39 ± 0.57", "unit": "pg/mL"}, {"measurement": "MIP1α concentration in media", "setting": "[2]; no stimulation, drug 200 nM", "value": "3.11 ± 0.28", "unit": "pg/mL"}, {"measurement": "RANTES concentration in media", "setting": "[2]; no stimulation, drug 200 nM", "value": "9.51 ± 0.56", "unit": "pg/mL"}, {"measurement": "JAK2/JAK1", "setting": "[3]", "value": ">10"}, {"measurement": "IC50", "setting": "[4]", "value": "< 100", "unit": "nM"}]}]}
